Results published in the NIST ThermoML archive (doi:10.1016/j.jct.2006.10.008).

Assays:
[1] = xn = mol fraction of the nth substance listed; conditions: 298.15 K, 101 kPa, Liquid
[2] = excess molar enthalpy (molar enthalpy of mixing); xn = mol fraction of the nth substance listed; conditions: 298.15 K, 101 kPa, Liquid, Calvet calorimetry

ClCCCCCCCl [1,6-dichlorohexane] + COC=O
Conditions	excess molar enthalpy [kcal/mol]	mass density [kg/m3]
[1], x2 = 0.1205	–	1057.33
[1], x2 = 0.2277	–	1050.93
[1], x2 = 0.3234	–	1044.52
[1], x2 = 0.4146	–	1037.85
[1], x2 = 0.4858	–	1032.03
[1], x2 = 0.555	–	1025.73
[1], x2 = 0.6169	–	1019.68
[1], x2 = 0.6713	–	1013.87
[1], x2 = 0.7244	–	1007.71
[1], x2 = 0.7696	–	1002.16
[1], x2 = 0.811	–	996.6
[1], x2 = 0.8479	–	991.36
[1], x2 = 0.8838	–	986.03
[1], x2 = 0.9163	–	980.96
[1], x2 = 0.9461	–	976
[1], x2 = 0.9737	–	970.7
[2], x2 = 0.0953	0.058	–
[2], x2 = 0.2199	0.1098	–
[2], x2 = 0.3324	0.1456	–
[2], x2 = 0.4307	0.1664	–
[2], x2 = 0.5033	0.1742	–
[2], x2 = 0.5596	0.1754	–
[2], x2 = 0.5977	0.1763	–
[2], x2 = 0.6601	0.173	–
[2], x2 = 0.7167	0.1668	–
[2], x2 = 0.7749	0.1558	–
[2], x2 = 0.8296	0.1374	–
[2], x2 = 0.8855	0.113	–
[2], x2 = 0.935	0.0781	–
[2], x2 = 0.974	0.0416	–

ClCCCCl [1,3-dichloropropane] + CCCCOC=O
Conditions	excess molar enthalpy [kcal/mol]	mass density [kg/m3]
[1], x2 = 0.0505	–	1161.51
[1], x2 = 0.101	–	1144.56
[1], x2 = 0.1523	–	1127.68
[1], x2 = 0.2044	–	1110.9
[1], x2 = 0.2581	–	1094
[1], x2 = 0.313	–	1077.09
[1], x2 = 0.3693	–	1060.1
[1], x2 = 0.4847	–	1026.45
[1], x2 = 0.5445	–	1009.59
[1], x2 = 0.6675	–	976.01
[1], x2 = 0.7309	–	959.34
[1], x2 = 0.7964	–	942.5
[1], x2 = 0.862	–	925.98
[1], x2 = 0.9296	–	909.27
[2], x2 = 0.0521	-0.00691	–
[2], x2 = 0.1142	-0.0126	–
[2], x2 = 0.1765	-0.0207	–
[2], x2 = 0.2379	-0.0303	–
[2], x2 = 0.2982	-0.0385	–
[2], x2 = 0.3557	-0.049	–
[2], x2 = 0.4108	-0.0593	–
[2], x2 = 0.4602	-0.0664	–
[2], x2 = 0.5057	-0.0712	–
[2], x2 = 0.5508	-0.0716	–
[2], x2 = 0.6114	-0.069	–
[2], x2 = 0.6872	-0.0624	–
[2], x2 = 0.7608	-0.0527	–
[2], x2 = 0.8457	-0.0376	–
[2], x2 = 0.9261	-0.0206	–

ClCCCCCl [1,4-dichlorobutane] + CCCCOC=O
Conditions	excess molar enthalpy [kcal/mol]	mass density [kg/m3]
[1], x2 = 0.0624	–	1118.28
[1], x2 = 0.1208	–	1103.88
[1], x2 = 0.1776	–	1089.9
[1], x2 = 0.2372	–	1075.3
[1], x2 = 0.346	–	1048.8
[1], x2 = 0.4096	–	1033.38
[1], x2 = 0.4679	–	1019.27
[1], x2 = 0.5213	–	1006.41
[1], x2 = 0.6434	–	977.11
[1], x2 = 0.7039	–	962.64
[1], x2 = 0.7624	–	948.68
[1], x2 = 0.821	–	934.76
[1], x2 = 0.8802	–	920.71
[1], x2 = 0.9398	–	906.62
[2], x2 = 0.0614	-0.00275	–
[2], x2 = 0.1294	-0.00724	–
[2], x2 = 0.1998	-0.0131	–
[2], x2 = 0.2674	-0.0218	–
[2], x2 = 0.3309	-0.0293	–
[2], x2 = 0.3925	-0.039	–
[2], x2 = 0.4407	-0.0473	–
[2], x2 = 0.4897	-0.0533	–
[2], x2 = 0.5404	-0.0542	–
[2], x2 = 0.5969	-0.0539	–
[2], x2 = 0.6592	-0.0513	–
[2], x2 = 0.7249	-0.0461	–
[2], x2 = 0.795	-0.0386	–
[2], x2 = 0.8656	-0.028	–
[2], x2 = 0.9356	-0.0149	–

CCCOC=O [propyl methanoate] + ClCCCl
Conditions	excess molar enthalpy [kcal/mol]	mass density [kg/m3]
[1], x1 = 0.0538	–	1223.09
[1], x1 = 0.1017	–	1203.75
[1], x1 = 0.1515	–	1184.04
[1], x1 = 0.2043	–	1163.71
[1], x1 = 0.2575	–	1143.76
[1], x1 = 0.3685	–	1103.98
[1], x1 = 0.4248	–	1084.54
[1], x1 = 0.4826	–	1065.09
[1], x1 = 0.5426	–	1045.46
[1], x1 = 0.6034	–	1026.11
[1], x1 = 0.6652	–	1006.9
[1], x1 = 0.7294	–	987.38
[1], x1 = 0.794	–	968.29
[1], x1 = 0.8599	–	949.22
[1], x1 = 0.9286	–	929.85
[2], x1 = 0.0489	-0.00894	–
[2], x1 = 0.1034	-0.0201	–
[2], x1 = 0.1594	-0.0337	–
[2], x1 = 0.2211	-0.0473	–
[2], x1 = 0.28	-0.0608	–
[2], x1 = 0.3363	-0.0734	–
[2], x1 = 0.3886	-0.0843	–
[2], x1 = 0.4382	-0.09338	–
[2], x1 = 0.483	-0.1003	–
[2], x1 = 0.5155	-0.104	–
[2], x1 = 0.5716	-0.1046	–
[2], x1 = 0.6361	-0.1004	–
[2], x1 = 0.7083	-0.08982	–
[2], x1 = 0.7725	-0.0749	–
[2], x1 = 0.8488	-0.0545	–
[2], x1 = 0.9302	-0.0292	–

ClCCCCl [1,3-dichloropropane] + COC=O
Conditions	excess molar enthalpy [kcal/mol]	mass density [kg/m3]
[1], x2 = 0.0849	–	1165.85
[1], x2 = 0.165	–	1152.81
[1], x2 = 0.244	–	1139.5
[1], x2 = 0.3177	–	1126.33
[1], x2 = 0.386	–	1113.56
[1], x2 = 0.4563	–	1099.9
[1], x2 = 0.5138	–	1088.31
[1], x2 = 0.5789	–	1074.43
[1], x2 = 0.635	–	1062.04
[1], x2 = 0.688	–	1049.82
[1], x2 = 0.7384	–	1037.54
[1], x2 = 0.7876	–	1025.35
[1], x2 = 0.8341	–	1013.43
[1], x2 = 0.878	–	1001.59
[1], x2 = 0.9206	–	989.81
[1], x2 = 0.9607	–	978.24
[2], x2 = 0.0855	0.0211	–
[2], x2 = 0.2024	0.0493	–
[2], x2 = 0.3078	0.0673	–
[2], x2 = 0.4178	0.0803	–
[2], x2 = 0.4624	0.08236	–
[2], x2 = 0.4877	0.0832	–
[2], x2 = 0.5024	0.08372	–
[2], x2 = 0.5476	0.0843	–
[2], x2 = 0.5583	0.08203	–
[2], x2 = 0.5978	0.0807	–
[2], x2 = 0.6499	0.078	–
[2], x2 = 0.7069	0.0738	–
[2], x2 = 0.7674	0.0679	–
[2], x2 = 0.8297	0.0585	–
[2], x2 = 0.893	0.0448	–
[2], x2 = 0.9533	0.0246	–

CCCCCOC=O [pentyl methanoate] + ClCCCCl
Conditions	excess molar enthalpy, [2] [kcal/mol]	mass density, [1] [kg/m3]
x1 = 0.0471	–	1159.68
x1 = 0.0477	-0.00664	–
x1 = 0.0911	–	1142.71
x1 = 0.1093	-0.0151	–
x1 = 0.1377	–	1125.33
x1 = 0.1729	-0.0245	–
x1 = 0.1848	–	1108.29
x1 = 0.2341	–	1091.1
x1 = 0.2358	-0.0341	–
x1 = 0.2905	-0.0437	–
x1 = 0.3403	–	1056.06
x1 = 0.3427	-0.0529	–
x1 = 0.3933	-0.0605	–
x1 = 0.4528	–	1021.65
x1 = 0.4564	-0.0661	–
x1 = 0.5122	-0.0678	1004.48
x1 = 0.5719	-0.0682	–
x1 = 0.5737	–	987.37
x1 = 0.6379	–	970.23
x1 = 0.6452	-0.0655	–
x1 = 0.7034	–	953.41
x1 = 0.7254	-0.0585	–
x1 = 0.7721	–	936.49
x1 = 0.8109	-0.045	–
x1 = 0.8438	–	919.53
x1 = 0.9161	-0.0244	–
x1 = 0.9188	–	902.44
